Laboratory results taken from PubChem BioAssay AID270 (DTP/NCI, 2004).
“And” between values parts separate entries of the source, which are not always exact repeats. Equal values may be shown once. Results filed as inconclusive are left out.

Test system: BDF1 mice, s.c. Lewis lung carcinoma, T/C %
Assay: NCI In Vivo Anticancer Drug Screen. Data for tumor model Lewis Lung Carcinoma (subcutaneous) in B6D2F1 (BDF1) mice
Procedure, shortened: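 The value reflects a ratio in which the treated cohort's survival time or tumour size is compared against mice receiving only vehicle.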

[1] = endpoint: median survival time, dose: 3.12 mg/kg/injection, schedule: Q01DX009 (ip), vehicle: Klucel (hydroxypropylcellulose) (HPC), higher = longer survival
[2] = endpoint: median survival time, dose: 6.25 mg/kg/injection, schedule: Q01DX009 (ip), vehicle: Klucel (hydroxypropylcellulose) (HPC), higher = longer survival
[3] = endpoint: median survival time, dose: 12.5 mg/kg/injection, schedule: Q01DX009 (ip), vehicle: Klucel (hydroxypropylcellulose) (HPC), higher = longer survival

CC1OC(Oc2c(-c3cc(O)c(O)c(O)c3)oc3cc(O)cc(O)c3c2=O)C(O)C(O)C1O (centres undefined)
T/C (endpoint: mean tumor weight, dose: 100.0 mg/kg/injection, schedule: Q01DX011 (ip), vehicle: carboxymethylcellulose (CMC), higher = larger tumour): 59 % of control
T/C (endpoint: mean tumor weight, dose: 200.0 mg/kg/injection, schedule: Q01DX011 (ip), vehicle: carboxymethylcellulose (CMC), higher = larger tumour): 49 % of control
T/C (endpoint: mean tumor weight, dose: 400.0 mg/kg/injection, schedule: Q01DX011 (ip), vehicle: carboxymethylcellulose (CMC), higher = larger tumour): 50 % of control

O=C1C2C3CCC(O3)C2C(=O)N1c1nccs1 (centres undefined)
T/C (endpoint: mean tumor weight, dose: 62.5 mg/kg/injection, schedule: Q01DX011 (ip), vehicle: carboxymethylcellulose (CMC), higher = larger tumour): 75 % of control
T/C (endpoint: mean tumor weight, dose: 125.0 mg/kg/injection, schedule: Q01DX011 (ip), vehicle: carboxymethylcellulose (CMC), higher = larger tumour): 71 % of control

CS(=O)(=O)OCCCNCCCOS(C)(=O)=O
T/C (endpoint: mean tumor weight, dose: 10.0 mg/kg/injection, schedule: Q01DX011 (ip), vehicle: saline, higher = larger tumour): 63 % of control
T/C (endpoint: mean tumor weight, dose: 20.0 mg/kg/injection, schedule: Q01DX011 (ip), vehicle: saline, higher = larger tumour): 70 % of control
T/C (endpoint: mean tumor weight, dose: 40.0 mg/kg/injection, schedule: Q01DX011 (ip), vehicle: saline, higher = larger tumour): 42 % of control
T/C (endpoint: median survival time, dose: 10.0 mg/kg/injection, schedule: Q01DX009 (ip), vehicle: saline, higher = longer survival): 105 % of control
T/C (endpoint: median survival time, dose: 20.0 mg/kg/injection, schedule: Q01DX009 (ip), vehicle: saline, higher = longer survival): 101 % of control

C=C1C(=O)OC2C3OC(C)(CCC(O)C3COC(C)=O)CC(OC(=O)/C(=C/C)COC(C)=O)C12 (centres undefined)
T/C [1]: 107 % of control
T/C (endpoint: median survival time, dose: 3.13 mg/kg/injection, schedule: Q01DX009 (ip), vehicle: Klucel (hydroxypropylcellulose) (HPC), higher = longer survival): 101 % of control
T/C [2]: 101 % of control
T/C [3]: 114 % of control
T/C (endpoint: median survival time, dose: 25.0 mg/kg/injection, schedule: Q01DX009 (ip), vehicle: Klucel (hydroxypropylcellulose) (HPC), higher = longer survival): 106 % of control

O=NN(CCCl)C(=O)Nc1ccc(I)cc1
T/C [1]: 92 % of control
T/C [2]: 97 % of control
T/C [3]: 101 % of control
T/C (endpoint: median survival time, dose: 50.0 mg/kg/injection, schedule: Q01DX009 (ip), vehicle: Klucel (hydroxypropylcellulose) (HPC), higher = longer survival): 108 % of control

Cc1cc(N(CC(C)Br)CC(C)Br)ccc1N=Nc1ccccc1C(=O)O (centres undefined)
T/C (endpoint: median survival time, dose: 3.12 mg/kg/injection, schedule: Q01DX009 (ip), vehicle: saline with Tween-80, higher = longer survival): 108 % of control
T/C (endpoint: median survival time, dose: 6.25 mg/kg/injection, schedule: Q01DX009 (ip), vehicle: saline with Tween-80, higher = longer survival): 95 % of control and 102 % of control

O=[N+]([O-])c1ccccc1CSc1ncnc2nc[nH]c12
T/C (endpoint: mean tumor weight, dose: 15.6 mg/kg/injection, schedule: Q01DX011 (ip), vehicle: other, higher = larger tumour): 38 % of control
T/C (endpoint: mean tumor weight, dose: 31.3 mg/kg/injection, schedule: Q01DX011 (ip), vehicle: other, higher = larger tumour): 86 % of control
T/C (endpoint: mean tumor weight, dose: 62.5 mg/kg/injection, schedule: Q01DX011 (ip), vehicle: other, higher = larger tumour): 82 % of control
T/C (endpoint: mean tumor weight, dose: 125.0 mg/kg/injection, schedule: Q01DX011 (ip), vehicle: other, higher = larger tumour): 41 % of control

CN(/N=N/c1nc[nH]c1C(N)=O)C(C)(C)C
T/C (endpoint: median survival time, dose: 200.0 mg/kg/injection, schedule: Q01DX009 (ip), vehicle: Klucel (hydroxypropylcellulose) (HPC), higher = longer survival): 109 % of control
T/C (endpoint: median survival time, dose: 400.0 mg/kg/injection, schedule: Q01DX009 (ip), vehicle: Klucel (hydroxypropylcellulose) (HPC), higher = longer survival): 90 % of control

O=NN(CCCl)C(=O)NC1CCC(C(=O)O)CC1 (centres undefined)
T/C (endpoint: median survival time, dose: 3.0 mg/kg/injection, schedule: Q01DX001 (ip), vehicle: saline with Tween-80, higher = longer survival): 97 % of control and 117 % of control
T/C (endpoint: median survival time, dose: 5.0 mg/kg/injection, schedule: Q01DX001 (ip), vehicle: saline with Tween-80, higher = longer survival): 116 % of control
T/C (endpoint: median survival time, dose: 7.0 mg/kg/injection, schedule: Q01DX001 (ip), vehicle: saline with Tween-80, higher = longer survival): 110 % of control
T/C (endpoint: median survival time, dose: 8.0 mg/kg/injection, schedule: Q01DX001 (ip), vehicle: saline with Tween-80, higher = longer survival): 124 % of control
T/C (endpoint: median survival time, dose: 11.0 mg/kg/injection, schedule: Q01DX001 (ip), vehicle: saline with Tween-80, higher = longer survival): 113 % of control
T/C (endpoint: median survival time, dose: 12.0 mg/kg/injection, schedule: Q01DX001 (ip), vehicle: saline with Tween-80, higher = longer survival): 121 % of control
T/C (endpoint: median survival time, dose: 13.0 mg/kg/injection, schedule: Q01DX001 (ip), vehicle: saline with Tween-80, higher = longer survival): 111 % of control and 288 % of control and 180 % of control
T/C (endpoint: median survival time, dose: 17.0 mg/kg/injection, schedule: Q01DX001 (ip), vehicle: saline with Tween-80, higher = longer survival): 121 % of control
T/C (endpoint: median survival time, dose: 20.0 mg/kg/injection, schedule: Q01DX001 (ip), vehicle: saline with Tween-80, higher = longer survival): 206 % of control [middle of 5 runs]
T/C (endpoint: median survival time, dose: 26.0 mg/kg/injection, schedule: Q01DX001 (ip), vehicle: saline with Tween-80, higher = longer survival): 109 % of control
T/C (endpoint: median survival time, dose: 27.0 mg/kg/injection, schedule: Q01DX001 (ip), vehicle: saline with Tween-80, higher = longer survival): 196 % of control
T/C (endpoint: median survival time, dose: 30.0 mg/kg/injection, schedule: Q01DX001 (ip), vehicle: saline with Tween-80, higher = longer survival): 228 % of control and 288 % of control and 219 % of control
